Results: patent US7786141B2 (Vertex Pharmaceuticals Incorporated, priority 2004, dated 2010)

Columns and labels:
[1] = target: T1, M1 muscarinic receptor (Homo sapiens, UniProt P11229); experiment: Functional mobilization of intracellular calcium (FLIPR) in M1-CHO cells; assay type: cell-based; conditions: Table 4; for Emax: 100% efficacy is the maximum response obtained with the Carbachol control; for M1 Activity: M1 receptor, calcium mobilization (FLIPR)
T1 construct: expressed in transfected cells; host or cells: CHO (M1-CHO)
T1 sequence (P11229 1-460): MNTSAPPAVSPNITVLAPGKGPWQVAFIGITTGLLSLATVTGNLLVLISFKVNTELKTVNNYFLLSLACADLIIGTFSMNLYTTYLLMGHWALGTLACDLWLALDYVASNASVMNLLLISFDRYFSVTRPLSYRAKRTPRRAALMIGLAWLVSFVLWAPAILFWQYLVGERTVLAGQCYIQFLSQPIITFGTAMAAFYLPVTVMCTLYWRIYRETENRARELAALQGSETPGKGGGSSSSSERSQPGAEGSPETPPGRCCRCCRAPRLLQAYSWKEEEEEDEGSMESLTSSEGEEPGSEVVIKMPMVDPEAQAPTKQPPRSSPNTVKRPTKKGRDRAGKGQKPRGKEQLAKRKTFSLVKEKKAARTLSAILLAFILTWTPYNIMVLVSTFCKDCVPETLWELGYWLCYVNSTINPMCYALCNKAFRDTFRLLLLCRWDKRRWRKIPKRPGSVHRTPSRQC
Outline: (§1)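 Steps: seed M1- or M4-CHO cells 18-24 hrs ahead; load calcium dye with 1 mM probenecid; add test compound (0.5% DMSO final), either alone for agonism or 15 min before EC80 carbachol for inhibition; record FLIPR fluorescence for 60 sec.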

[2] = target: T2, M4 muscarinic receptor (Homo sapiens, UniProt P08173); experiment: Functional mobilization of intracellular calcium (FLIPR) in M4-CHO cells; assay type: cell-based; conditions: Table 4; for Emax: 100% efficacy is the maximum response obtained with the Carbachol control; for M4 Activity: M4 receptor, calcium mobilization (FLIPR)
T2 construct: expressed in transfected cells; host or cells: CHO (M4-CHO)
T2 sequence (P08173 1-479): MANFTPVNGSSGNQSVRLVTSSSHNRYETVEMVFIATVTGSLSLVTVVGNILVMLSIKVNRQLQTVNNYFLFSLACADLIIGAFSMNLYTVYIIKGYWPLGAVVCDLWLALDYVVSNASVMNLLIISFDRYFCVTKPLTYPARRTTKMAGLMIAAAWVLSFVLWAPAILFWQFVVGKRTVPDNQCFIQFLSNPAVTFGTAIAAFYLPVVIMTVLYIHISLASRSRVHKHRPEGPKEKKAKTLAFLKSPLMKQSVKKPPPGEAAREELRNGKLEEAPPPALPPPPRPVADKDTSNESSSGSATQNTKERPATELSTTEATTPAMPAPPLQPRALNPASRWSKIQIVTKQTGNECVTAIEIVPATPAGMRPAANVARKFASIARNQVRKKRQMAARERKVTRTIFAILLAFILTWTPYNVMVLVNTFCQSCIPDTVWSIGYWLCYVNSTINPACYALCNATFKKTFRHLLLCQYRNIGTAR
Outline: as §1

| SMILES | Emax [1] | M1 Activity [1] | Emax [2] | M4 Activity [2] |
| --- | --- | --- | --- | --- |
| CN(C)C(=O)N1CC2(CCN(C3CCN(c4cccc(F)c4)CC3)CC2)c2cc(F)ccc21 [compound 866] | 25 to 100% | xx (activity was measured to be between 2.0 μM and 5.0 μM) | 25 to 100% | xxx (activity was measured to be less than 2.0 μM) |
| O=C(N[C@H]1CC2(CCN([C@@H]3C[C@@H]4CC[C@@H]3C4)CC2)c2ccccc21)c1ccoc1 [compound 868] | < 25% | x (activity was measured to be greater than 5.0 μM) | 25 to 100% | xxx (activity was measured to be less than 2.0 μM) |
| CCOC(=O)N1CCC(CN2CCC3(CC2)CN(C(C)=O)c2c(C)cc(C)cc23)CC1 [compound 869] | 25 to 100% | xx (activity was measured to be between 2.0 μM and 5.0 μM) | 25 to 100% | xxx (activity was measured to be less than 2.0 μM) |
| CC(=O)N1CC2(CCN(C[C@H]3CCN(C(=O)OCC(F)F)C3)CC2)c2ccccc21 [compound 871] | 25 to 100% | x (activity was measured to be greater than 5.0 μM) | 25 to 100% | xx (activity was measured to be between 2.0 μM and 5.0 μM) |
| CCOC(=O)N1CCC(N2CCC3(CC2)CN(C(C)=O)c2ccc(C(C)C)cc23)CC1 [compound 872] | 25 to 100% | xxx (activity was measured to be less than 2.0 μM) | 25 to 100% | xxx (activity was measured to be less than 2.0 μM) |
| CC1=C(CCN2CCC3(CC2)C[C@H](NC(=O)C2CCCC2)c2ccccc23)C(C)(C)CCC1 [compound 873] | < 25% | x (activity was measured to be greater than 5.0 μM) | < 25% | x (activity was measured to be greater than 5.0 μM) |
| CC(=O)NC1CCC2(CCN(CCC3CCCN(C(C)=O)C3)CC2)c2ccccc21 (stereo not shown) [compound 874] | 25 to 100% | xx (activity was measured to be between 2.0 μM and 5.0 μM) | < 25% | x (activity was measured to be greater than 5.0 μM) |
| COC(=O)N1CCC(CCN2CCC3(CCC(NC(C)=O)c4ccccc43)CC2)CC1 (stereo not shown) [compound 875] | 25 to 100% | xxx (activity was measured to be less than 2.0 μM) | < 25% | x (activity was measured to be greater than 5.0 μM) |
| CC(=O)CN1CC2(CCN(C[C@H]3C[C@H]4C=CC3C4)CC2)c2cc(F)ccc21 [compound 877] | 25 to 100% | xxx (activity was measured to be less than 2.0 μM) | 25 to 100% | xxx (activity was measured to be less than 2.0 μM) |
| CC(=O)CN1CC2(CCN([C@@H]3C[C@H]4CCC3C4)CC2)c2cc(C)ccc21 [compound 878] | 25 to 100% | xxx (activity was measured to be less than 2.0 μM) | 25 to 100% | xxx (activity was measured to be less than 2.0 μM) |
| CCOC(=O)N1CCC(N2CCC3(CC2)CN(c2nccs2)c2ccc(F)cc23)CC1 [compound 879] | 25 to 100% | xxx (activity was measured to be less than 2.0 μM) | 25 to 100% | xxx (activity was measured to be less than 2.0 μM) |
| CC(=O)N1CCC(N2CCC3(CC2)CN(C(=O)N(C)C)c2ccc(F)cc23)CC1 [compound 880] | < 25% | x (activity was measured to be greater than 5.0 μM) | < 25% | x (activity was measured to be greater than 5.0 μM) |
| CC(=O)N[C@H]1CCC2(CCN(C3CCCCCC3)CC2)c2ccccc21 [compound 881] | 25 to 100% | xxx (activity was measured to be less than 2.0 μM) | 25 to 100% | xxx (activity was measured to be less than 2.0 μM) |
| CC(=O)N[C@@H]1CCC2(CCN(CC3CCCCC3)CC2)c2ccccc21 [compound 882] | < 25% | x (activity was measured to be greater than 5.0 μM) | < 25% | x (activity was measured to be greater than 5.0 μM) |
| COCCN1CC2(CCN(C3CC4CCC(C4)C3)CC2)c2cc(F)ccc21 (stereo not shown) [compound 884] | 25 to 100% | xxx (activity was measured to be less than 2.0 μM) | 25 to 100% | xxx (activity was measured to be less than 2.0 μM) |
| CN(C)C(=O)N1CC2(CCN(C3CCN(C(=O)OCC(F)F)CC3)CC2)c2cc(F)ccc21 [compound 885] | 25 to 100% | xxx (activity was measured to be less than 2.0 μM) | 25 to 100% | xxx (activity was measured to be less than 2.0 μM) |
| CC#CCOC(=O)N1CC[C@@H](CN2CCC3(CC2)CN(C(C)=O)c2ccccc23)C1 [compound 886] | 25 to 100% | xxx (activity was measured to be less than 2.0 μM) | 25 to 100% | xxx (activity was measured to be less than 2.0 μM) |
| CN(C)C(=O)N1CC2(CCN(C3CCN(C(=O)c4ccccc4F)CC3)CC2)c2cc(F)ccc21 [compound 887] | 25 to 100% | xx (activity was measured to be between 2.0 μM and 5.0 μM) | < 25% | x (activity was measured to be greater than 5.0 μM) |
| CC(=O)NC1CCC2(CCN(CCC3CCCN(C(=O)N(C)C)C3)CC2)c2ccccc21 (stereo not shown) [compound 888] | 25 to 100% | xxx (activity was measured to be less than 2.0 μM) | < 25% | x (activity was measured to be greater than 5.0 μM) |
| O=C(N[C@H]1CCC2(CCN(CC3CCCCC3)CC2)c2ccccc21)C1CC1 [compound 889] | 25 to 100% | xxx (activity was measured to be less than 2.0 μM) | 25 to 100% | xxx (activity was measured to be less than 2.0 μM) |
| CCOC(=O)N1CCC(N2CCC3(CC2)CN(c2ccsc2)c2ccc(F)cc23)CC1 [compound 891] | 25 to 100% | xxx (activity was measured to be less than 2.0 μM) | 25 to 100% | xxx (activity was measured to be less than 2.0 μM) |
| CCC(C)(C)C1CCC(N2CCC3(CC2)CN(C(C)=O)c2ccc(F)cc23)CC1 (stereo not shown) [compound 892] | < 25% | x (activity was measured to be greater than 5.0 μM) | < 25% | x (activity was measured to be greater than 5.0 μM) |
| CC(=O)N1CC2(CCN(C3CCN(c4cncc(CC(C)C)n4)CC3)CC2)c2ccccc21 [compound 893] | < 25% | x (activity was measured to be greater than 5.0 μM) | < 25% | x (activity was measured to be greater than 5.0 μM) |
| CC(=O)N1CC2(CCN(C3CCN(c4nccs4)CC3)CC2)c2ccccc21 [compound 894] | 25 to 100% | x (activity was measured to be greater than 5.0 μM) | < 25% | x (activity was measured to be greater than 5.0 μM) |
| CN(C)C(=O)N1CC2(CCN(C3CCN(c4cnccn4)CC3)CC2)c2cc(F)ccc21 [compound 895] | 25 to 100% | xxx (activity was measured to be less than 2.0 μM) | 25 to 100% | xxx (activity was measured to be less than 2.0 μM) |
